Results reported in US20020045254A1, “Established cells” (priority 1998, published 2002).

Assays:
GLUT-1 transport carrier = target: T1, GLUT-1 transport carrier (Rattus norvegicus, UniProt P11167); assay: 3-OMG uptake by TR-BBB cell lines (glucose transport capability); type: in vitro ADME
T1 construct: endogenous in cells; host or cells: TR-BBB1, TR-BBB5, TR-BBB6, TR-BBB11, TR-BBB13, immortalized rat brain capillary endothelial cells
T1 sequence (P11167 1-492): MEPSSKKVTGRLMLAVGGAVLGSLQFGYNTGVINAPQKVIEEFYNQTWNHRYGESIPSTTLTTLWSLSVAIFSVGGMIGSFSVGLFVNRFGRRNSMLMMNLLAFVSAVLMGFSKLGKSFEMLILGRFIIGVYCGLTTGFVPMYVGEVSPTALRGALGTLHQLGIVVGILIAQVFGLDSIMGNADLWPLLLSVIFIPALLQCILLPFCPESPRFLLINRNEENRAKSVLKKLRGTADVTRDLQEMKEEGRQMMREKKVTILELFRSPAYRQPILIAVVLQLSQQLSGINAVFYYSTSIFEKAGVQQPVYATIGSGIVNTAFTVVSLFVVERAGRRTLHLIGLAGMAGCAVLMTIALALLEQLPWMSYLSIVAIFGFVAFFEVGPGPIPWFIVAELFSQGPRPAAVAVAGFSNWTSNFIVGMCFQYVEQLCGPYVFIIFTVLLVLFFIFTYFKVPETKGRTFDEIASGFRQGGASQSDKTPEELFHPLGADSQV

GLUT-1 transporter = target: T2, GLUT-1 transporter (Rattus norvegicus, UniProt P11167); assay: 3-OMG uptake by TR-iBRB2 cells (glucose transport capability); type: in vitro ADME
T2 construct: endogenous in cells; host or cells: TR-iBRB2, immortalized rat retinal capillary endothelial cells (tsA58 SV40 large T transgenic rat)
T2 sequence (P11167 1-492): T1 sequence (P11167 1-492)
Protocol: The 3-OMG uptake was determined according to the following procedure. After removing medium by aspiration, 0.2 mL of an uptake buffer containing 232 kBq/mL of [^3H]3-OMG heated to 37° C. was added. […] After 10 seconds, the uptake buffer (1) was removed and the residue was washed with the uptake buffer (1) at 4° C. The same procedure was repeated except for changing the period of time before removing the uptake buffer (1) to 20 seconds, 30 seconds, or one minutes. The cells were solubilized in 1 mL of PBS containing 1% Triton X-100 and the radioactivity was measured using a liquid scintillation counter to confirm the linearity of the 3-OMG uptake capability. As a result, an uptake time of 20 seconds was set.
Next, the substrate concentration dependency of the 3-OMG uptake capability was examined. After washing the cells with the uptake buffer (1) heated to 37° C., 0.2 mL of the uptake buffer (1) containing 462 kBq/well of [^3H]3-OMG was added. Solutions containing 3-OMG at different concentrations were prepared by adding non-labeled 3-OMG to the uptake buffer (1) to make final concentrations of 0, 0.5, 1, 5, 10, 20, 30, and 50 mM. […] Next, the cells were solubilized overnight in 1 mL of PBS containing 1% Triton X-100 and the radioactivity was measured using a liquid scintillation counter.

TR-CSFB3 cells [1] = assay: Inhibition of L-proline uptake of TR-CSFB3 cells by Na+-free (choline) buffer and ouabain; type: cell-based, rat; details: 30 minutes
Protocol: The L-proline uptake into the isolated choroid plexus is dependent on Na^+. […] However, because the experiment must be carried out under Na^+-free conditions, all Na^+ in the uptake buffer (1) was replaced with coline. […] Both reactions were carried out for 30 minutes. It was confirmed that L-proline uptake was inhibited as much as 98% under Na^+-free conditions. It was confirmed that 56% of L-proline uptake was inhibited by 1 mM ouabain. As a result, the L-proline uptake of TR-CSFB3 cells was confirmed to be Na^+-dependent.

rabbit choroid plexus = details: read-out: Km value from rabbit choroid plexus; L-proline, Coben L. A. et al. (1972); cited from earlier work
TR-CSFB3 cells [2] = system: TR-CSFB3 cells
Protocol: The concentration dependency of the resulting cells on the L-proline transport was examined to determine the L-proline transport capability.
After the uptake reaction for 30 minutes and washing three times with PBS, 1 mL of PBS containing 1% Triton X-100 was added and the mixture was allowed to stand overnight to solubilize the cells. The radioactivity was measured using a liquid scintillation counter (LS-6500 made by Beckmann Co.).

Compound: 3-o-methyl-D-glucose [3-OMG]
- Initial uptake rate (GLUT-1 transport carrier; TR-BBB1 cells): 8.12 ± 0.62 μ1/min/mg protein
- Initial uptake rate (GLUT-1 transport carrier; TR-BBB5 cells): 10.1 ± 1.32 μ1/min/mg protein
- Initial uptake rate (GLUT-1 transport carrier; TR-BBB6 cells): 7.07 ± 0.92 μ1/min/mg protein
- Initial uptake rate (GLUT-1 transport carrier; TR-BBB11 cells): 10.2 ± 0.62 μ1/min/mg protein
- Initial uptake rate (GLUT-1 transport carrier; TR-BBB13 cells): 8.96 ± 0.50 μ1/min/mg protein
- initial uptake rate of [3H]3-OMG (GLUT-1 transport carrier; span over TR-BBB1, TR-BBB5, TR-BBB6, TR-BBB11 and TR-BBB13 cells): 7.07-10.2 μl/min/mg protein
- maximum velocity constant (Vmax) of 3-OMG uptake (GLUT-1 transporter; 20 seconds uptake, 37° C., 0-50 mM 3-OMG): 45 nmol/min/mg protein
- Km (GLUT-1 transporter; read-out: Michaelis constant (Km) of 3-OMG uptake, 20 seconds uptake, 37° C., 0-50 mM 3-OMG): 5.6 mM

Compound: O=C(O)[C@@H]1CCCN1 [L-proline]
- inhibition of L-proline uptake under Na+-free conditions (TR-CSFB3 cells [1]; all Na+ in uptake buffer replaced with choline): 98%
- Km (rabbit choroid plexus): 1.1 mM
- Vmax of L-proline uptake (TR-CSFB3 cells [2]; 30 minutes uptake, 0.005-20 mM L-proline): 2.4 nmol/min/mg protein
- Km (TR-CSFB3 cells [2]; read-out: Km of L-proline uptake, 30 minutes uptake, 0.005-20 mM L-proline): 1.5 mM

Compound: C[C@@H]1O[C@@H](O[C@H]2C[C@@H](O)[C@]3(CO)[C@H]4[C@H](O)C[C@]5(C)[C@@H](C6=CC(=O)OC6)CC[C@]5(O)[C@@H]4CC[C@]3(O)C2)[C@H](O)[C@H](O)[C@H]1O [ouabain]
- inhibition at 1000 µM (TR-CSFB3 cells [1]; Rattus norvegicus, 0.5 h, 1 mM ouabain): 56%
